IC50 data for 7 molecules are collected here from the Kinase Knowledgebase extract (Sharma et al. 2016).

“And” between values parts separate entries of the source, which are not always exact repeats. Equal entries are not always repeated.

In this test the target is CDK2 (human) (UniProt P24941). The test can be described thus: Enzyme Assay.
With `COc1cccc(CN2CCC(Nc3nc(N[C@H]4CC[C@H](N)CC4)nc4c3ncn4C3CCCC3)CC2)c1`, the IC50 (usually the concentration that gives 50% inhibition) is 140 nM and 300 nM and 340 nM. For the molecule `N[C@H]1CC[C@H](Nc2nc(NC3CCN(Cc4ccc(F)cc4)CC3)c3ncn(C4CCCC4)c3n2)CC1`, the IC50 came out at 1700 nM. For the molecule `N[C@H]1CC[C@H](Nc2nc(Nc3ccccc3)c3ncn(C4CCCC4)c3n2)CC1`, the IC50 is 5.4 nM. As to `N[C@H]1CC[C@H](Nc2nc(NC3CCN(Cc4cc(F)ccc4F)CC3)c3ncn(C4CCCC4)c3n2)CC1`, the IC50 is 670 nM and 220 nM and 510 nM. On to `Cc1ccc(CN2CCC(Nc3nc(N[C@H]4CC[C@H](N)CC4)nc4c3ncn4C3CCCC3)CC2)cc1`, for which the IC50 was 170 nM and 230 nM. For `Cc1ccc(CN2CCC(Nc3nc(N[C@H]4CC[C@H](N)CC4)nc4c3ncn4C3CCCC3)CC2)cc1Cl`, the IC50 is 120 nM and 320 nM.

On to `COc1ccccc1CN1CCC(Nc2nc(N[C@H]3CC[C@H](N)CC3)nc3c2ncn3C2CCCC2)CC1`, for which the IC50 was 240 nM and 110 nM and 80 nM.
